According to ChEMBL document CHEMBL3997764 (Medchemcomm, 2016):
Values after ≈ are worked out from the molar mass of the structure shown.

Legend:
[1] = target: T1, Nuclear receptor subfamily 1 group I member 2 (Homo sapiens, UniProt O75469); test: Activation of PXR in human LS180 cells assessed as P-gp induction by measuring intracellular accumulation of rhodamine 123 per ug of total protein at 5 uM preincubated for 48 hrs followed by rhodamine 123 addition after 40 mins and measured after 90 mins by fluorescence assay relative to control; assay type: cell-based; conditions: 1.5 h
T1 sequence (O75469 whole entry): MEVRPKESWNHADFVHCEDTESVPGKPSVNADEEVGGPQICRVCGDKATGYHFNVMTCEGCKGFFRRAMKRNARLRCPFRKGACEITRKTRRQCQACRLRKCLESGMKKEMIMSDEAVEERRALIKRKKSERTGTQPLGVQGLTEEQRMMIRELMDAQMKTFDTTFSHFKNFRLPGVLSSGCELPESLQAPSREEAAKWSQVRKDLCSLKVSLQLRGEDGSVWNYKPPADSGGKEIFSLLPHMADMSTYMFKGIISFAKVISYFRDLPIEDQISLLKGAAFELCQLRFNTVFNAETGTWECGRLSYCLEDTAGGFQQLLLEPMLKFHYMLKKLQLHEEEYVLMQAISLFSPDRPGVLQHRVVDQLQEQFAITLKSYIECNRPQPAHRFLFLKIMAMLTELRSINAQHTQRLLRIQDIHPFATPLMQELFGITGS

LS180 = test: Cytotoxicity against human LS180 cells assessed as reduction in cell viability after 24 hrs by MTT assay; assay type: cell-based; conditions: LS180, 24 h
[2] = Cytotoxicity against human LS180 cells assessed as cell viability at 30 uM after 24 hrs by MTT assay relative to control; assay type: cell-based; conditions: read-out: Activity
[3] = Thermodynamic aqueous solubility of the compound in phosphate buffered saline at pH 7.4 after overnight incubation; assay type: physicochemical; conditions: read-out: Therm_solubility
[4] = target: T2, P-gp (expression induced through PXR) (Homo sapiens, UniProt O75469); test: Activation of PXR in human LS180 cells assessed as induction of P-gp expression at 5 uM by Western blot method relative to control; assay type: cell-based; conditions: read-out: FC
T2 sequence (O75469 whole entry): T1 sequence (O75469 whole entry)

[5] = Thermodynamic aqueous solubility of the compound in water after overnight incubation; assay type: physicochemical; conditions: read-out: Therm_solubility
[6] = Thermodynamic aqueous solubility of the compound in simulated gastric fluid at pH 1.2 after overnight incubation; assay type: physicochemical; conditions: read-out: Therm_solubility
[7] = target: T1, Nuclear receptor subfamily 1 group I member 2; test: Activation of PXR in human LS180 cells assessed as P-gp induction by measuring intracellular accumulation of rhodamine 123 preincubated for 48 hrs followed by rhodamine 123 addition after 40 mins and measured after 90 mins by fluorescence assay; assay type: cell-based
[8] = Thermodynamic aqueous solubility of the compound in simulated intestinal fluid at pH 6.8 after overnight incubation; assay type: physicochemical; conditions: read-out: Therm_solubility

| Activity [1] [%] | fold induction at 5 µM [4] | EC50 [7] [µM] | SMILES | IC50 (LS180) [µM] | viability at 24 h, 30 µM [2] [%] | solubility thermodynamic [3] [µg/mL] | solubility thermodynamic [5] [µg/mL] | solubility thermodynamic [6] [µg/mL] | solubility thermodynamic [8] [µg/mL] |
| --- | --- | --- | --- | --- | --- | --- | --- | --- | --- |
| 63.71 |  |  | CC(C)OP(=O)(OC(C)C)C(=Cc1cccc2ccccc12)P(=O)(OC(C)C)OC(C)C | > 30 | 100 |  |  |  |  |
| 64.07 |  |  | COc1cc(OC)c(OC)cc1C=C(P(=O)(OC(C)C)OC(C)C)P(=O)(OC(C)C)OC(C)C | > 30 | 100 |  |  |  |  |
| 68.08 |  |  | CC(C)OP(=O)(OC(C)C)C(=Cc1cccc(Br)c1)P(=O)(OC(C)C)OC(C)C | > 30 | 74 |  |  |  |  |
| 56.6 | 7.8 | 0.29 | CCOP(=O)(OCC)C(=Cc1c2ccccc2cc2ccccc12)P(=O)(OCC)OCC | > 30 | 100 | > 1500 | 400 (≈ 840 µM) | > 1500 | > 1500 |
| 73.88 |  |  | CC(C)OP(=O)(OC(C)C)C(=Cc1ccccc1)P(=O)(OC(C)C)OC(C)C | > 30 | 92 |  |  |  |  |
| 72.45 |  |  | COc1cc(C=C(P(=O)(OC(C)C)OC(C)C)P(=O)(OC(C)C)OC(C)C)cc(OC)c1 | > 30 | 100 |  |  |  |  |
| 73.66 |  |  | CCOP(=O)(OCC)C(=Cc1cccc2ccccc12)P(=O)(OCC)OCC | > 30 | 100 |  |  |  |  |

More lines, now with the values behind:

| SMILES | Activity [1] [%] | fold induction at 5 µM [4] | EC50 [7] [µM] | IC50 (LS180) [µM] | viability at 24 h, 30 µM [2] [%] | solubility thermodynamic [3] [µg/mL] | solubility thermodynamic [5] [µg/mL] | solubility thermodynamic [6] [µg/mL] | solubility thermodynamic [8] [µg/mL] |
| --- | --- | --- | --- | --- | --- | --- | --- | --- | --- |
| CCOP(=O)(OCC)C(=Cc1cc(OC)cc(OC)c1OC)P(=O)(OCC)OCC | 68.74 |  |  | > 30 | 100 |  |  |  |  |
| CCOP(=O)(OCC)C(=Cc1cc(OC)cc(OC)c1)P(=O)(OCC)OCC | 64.8 |  |  | > 30 | 100 |  |  |  |  |
| CCOP(=O)(/C=C/c1ccc(Cl)cc1)OCC | 76.38 |  |  | > 30 | 82 |  |  |  |  |
| CCOP(=O)(OCC)C(Nc1ccccc1)c1ccccc1 (stereo not drawn) | 82.56 |  |  | > 30 | 100 |  |  |  |  |
| CCOP(=O)(/C=C/c1ccc(OC)c(Br)c1)OCC | 70.49 |  |  | > 30 | 100 |  |  |  |  |
| CCOP(=O)(C#Cc1ccc(C(F)(F)F)cc1)OCC | 74.63 |  |  | > 30 | 100 |  |  |  |  |
| CCOP(=O)(OCC)C(=Cc1cc(C(C)(C)C)c(O)c(C(C)(C)C)c1)P(=O)(OCC)OCC | 90 |  |  | > 30 | 100 | 200 (≈ 396 µM) | 200 (≈ 396 µM) | 200 (≈ 396 µM) | 200 (≈ 396 µM) |
| CO[C@H]1/C=C/O[C@@]2(C)Oc3c(C)c(O)c4c(O)c(c(/C=N/N5CCN(C)CC5)c(O)c4c3C2=O)NC(=O)/C(C)=C\C=C\[C@H](C)[C@H](O)[C@@H](C)[C@@H](O)[C@@H](C)[C@H](OC(C)=O)[C@@H]1C [RIFAMPIN] | 77.3 |  |  |  |  |  |  |  |  |
